Results on 14 molecules are retold here after patent US20240173346A1, “LINE-1 INHIBITORS TO TREAT CNS AND SYSTEMIC DISEASES” (TRANSPOSON THERAPEUTICS, INC., priority 2021, published 2024).

Counter-ions that a name gives are not always drawn. Like-named read-outs stand apart in the source and are kept apart here.

For this assay, the system named is human LINE-1. The assay is described as follows: Human LINE-1 retrotransposition assay (HeLa cell-based dual-luciferase reporter, plasmid pYX017). The conditions noted are these: HeLa cells; for IC50: 72 h incubation. How it is done:
Islatravir and other compounds were tested for inhibition of retrotransposition activity of human LINE-1 in HeLa cells according to the following procedure.
HeLa cervical cancer cells were cultivated at 37° C. in a humidified 5% CO2 incubator in Dulbecco's Modified Eagle's Medium (DMEM)—high glucose, with 4500 mg/L glucose, L-glutamine, sodium pyruvate and sodium bicarbonate (Sigma), supplemented with 10% of heat inactivated fetal bovine serum (Thermo Fisher).
Assays were performed using reporter plasmid pYX017 as described (Xie, et al., 2011) with several modifications. The reporter assay was performed in 96-well white optical bottom plates. HeLa cells were seeded in wells 24 h prior to transfection and compound treatment so that cells were approximately 30% confluent on the day of transfection. Different cell plating densities were tested and a density of 2×10^3 cells was determined to be optimal.
Compounds were resuspended in DMSO. Serial dilutions (1:3) were prepared in DMSO. Medium containing different concentrations of the compounds were prepared by adding 2 μl of the compound dilution to 1 ml of the culture medium. The final concentration of DMSO in the medium was 0.2%.
FuGENE® HD transfection reagent (Promega, E2311, Lot 382574 and Lot 397842) was used to transfect the plasmids into the cells. The transfection reagent: DNA mixture was prepared in OpiMEM (Thermo Fisher) according to manufacturer's instructions. Different ratios of transfection reagent to DNA were tested and a ratio of 3:1 was determined to be optimal. Culture medium was removed from the cells and discarded. The transfection reagent: DNA mixture (5 μl) was mixed with the compound containing medium (100 μl/well) and this was added onto the cells of each well. Cells were incubated at 37° C./5% CO2 for different incubation time. A 72 h incubation time was determined to be optimal.
Luciferase reporter activity was quantified with the Dual-Luciferase® Reporter Assay System (Promega) according to manufacturer's instructions for multiwell plates except that cells were lysed directly on the multiwell plate with 30 μl of the passive lysis buffer (PLB) for 20 min at room temperature, with gentle shaking to ensure complete cell lysis.
Firefly and Renilla luciferase signals were measured using a SpectraMax i3x Multi-Mode Microplate Reader. Integration times of 100 ms and 10 ms were used to measure the Firefly and Renilla signals respectively. Relative L1 activity is calculated as Firefly/Renilla *1000 or Firefly/Renilla *10,000. Dose response inhibition data were fit to a four parameter logistic equation using non-linear regression (using Graphpad Prism 8), to determine IC50 values for each inhibitor.

[1] abbreviates: Homo sapiens, compounds of Table 1 (Table 4), read-out: Human LINE-1 IC50.
Where [2] appears, read: Homo sapiens, Firefly/Renilla luciferase, experiment 1, read-out: Human LINE-1 IC50, Exp. 1.
[3] abbreviates: Homo sapiens, Firefly/Renilla luciferase, experiment 2, read-out: Human LINE-1 IC50, Exp. 2.
The mark [4] stands for this setting: Homo sapiens, Firefly/Renilla luciferase, experiment 3, read-out: Human LINE-1 IC50, Exp. 3.
Setting [5] is: Homo sapiens, Firefly/Renilla luciferase, experiment 4, read-out: Human LINE-1 IC50, Exp. 4.
[6] abbreviates: Homo sapiens, average of n = 2-4 experiments, read-out: Human LINE-1 IC50, Average.

Regarding `CC[C@]1(CO)O[C@@H](n2cnc3c(O)nc(N)nc32)C[C@@H]1O` [compound 20], the IC50 under setting [1] worked out at 3 nM.
With `Nc1ccn([C@@H]2CS[C@H](CO)O2)c(=O)n1` [Lamivudine], the IC50 runs as follows: under setting [2], 790 nM; under setting [3], 870 nM; under setting [4], 570 nM; under setting [5], 340 nM.
With `Cc1cn([C@H]2C=C[C@@H](CO)O2)c(=O)[nH]c1=O` [Stavudine], the IC50 was 780 nM under setting [4] and 710 nM under setting [5].
For the molecule `Nc1nc(=O)n([C@@H]2C=C[C@H](CO)O2)cc1F` [Elvucitabine], the IC50 came out at 90 nM under setting [2], 80 nM under setting [4], 110 nM under setting [5] and 90 nM under setting [6].
For the molecule `Nc1ccn([C@H]2CO[C@@H](CO)S2)c(=O)n1` [Apricitabine], the IC50 was determined as 7690 nM under setting [4], 5220 nM under setting [5] and 6460 nM under setting [6].
As to `C#C[C@]1(CO)O[C@@H](n2cc(C)c(N)nc2=O)C[C@@H]1O` [compound 6], under setting [1], the IC50 came out at 18600 nM.
Regarding `CC(C)OC(=O)OCOP(=O)(CO[C@H](C)Cn1cnc2c(N)ncnc21)OCOC(=O)OC(C)C` [Tenofovir disoproxil], the IC50 is, setting by setting: under setting [4], 140 nM; under setting [5], 260 nM.
`Nc1nc(NC2CC2)c2ncn([C@H]3C=C[C@@H](CO)C3)c2n1` [Abacavir sulfate]: the IC50 reads like this: under setting [4], 16800 nM; under setting [5], 17400 nM.
With `Nc1nc(=O)n([C@@H]2CS[C@H](CO)O2)cc1F` [Emtricitabine], the IC50 was determined as 1390 nM under setting [4] and 1300 nM under setting [5].
On to `C=C[C@]1(CO)O[C@@H](n2ccc(N)nc2=O)C[C@@H]1O` [compound 18], for which the IC50 under setting [1] worked out at 8 nM.
On to `C#C[C@]1(CO)O[C@@H](n2cnc3c(N)nc(F)nc32)C[C@@H]1O` [Islatravir, 2′-deoxy-4′-ethynyl-2-fluoroadenosine], for which the IC50 under setting [6] was determined as 1.3 nM.
In the case of `C[C@H](Cn1cnc2c(N)ncnc21)OCP(=O)(O)O` [Tenofovir], the IC50 was 3310 nM (Firefly/Renilla luciferase, experiment 3, read-out: Human LINE-1 IC50, Exp. 3) and 2230 nM (Firefly/Renilla luciferase, experiment 4, read-out: Human LINE-1 IC50, Exp. 4).
Take `CC[C@]1(CO)O[C@@H](n2cc(C)c(=O)[nH]c2=O)C[C@@H]1O` [compound 19]: the IC50 under setting [1] is 2000 nM.
`C#C[C@@]1(CO)C=C[C@H](n2cc(C)c(=O)[nH]c2=O)O1` [Censavudine, 4′-ethynylstavudine]: the “human LINE-1 inhibitor activity compared to the other reverse transcriptase inhibitory drugs tested” value (comparison in words) is “unexpectedly better human LINE-1 inhibitor activity”. In addition, the IC50 under setting [3] came to 90 nM, the IC50 under setting [4] is 80 nM and the IC50 under setting [6] amounted to 70 nM.
